This is an account of results in US10472334B2, “Small molecules for inhibiting male fertility” (The University of North Carolina at Chapel Hill, priority 2014, dated 2019).

Each structure is given as a SMILES string.

The nature of the data set: In vitro metabolism, human liver microsomes. In kind it is in vitro ADME. The following applies: read-out: Human liver microsomes metabolism T½. The protocol:
In vitro metabolism was evaluated using the methods described in Obach, R. S. et al. (1997), J. Pharmacol. Exp. Ther., 283: 46-58.
Intrinsic Clearance (microsomes, S9, cryopreserved hepatocytes, recombinant CYP, recombinant UGT) Metabolic stability, expressed as percent of the parent compound remaining, was calculated by comparing the peak area of the compound at the time point relative to that at time-O. The half-life (T½) was estimated from the slope of the initial linear range of the logarithmic curve of compound remaining (%) vs. time, assuming the first-order kinetics. The apparent intrinsic clearance (CLint, in μL/min/pmol, μL/min/mg or μL/min/Mcell) was calculated according to the following formula: […]
Background: Liver microsomes are vesicles of endoplasmic reticulum, rich in cytochrome P450 enzymes.

Regarding `CCOC(=O)CSc1nc(NNC(=O)OC)nc(Nc2ccc(NC(=O)OC)c(O)c2)n1` [TZ4_121, [4-(3-Hydroxy-4-methoxycarbonylamino-phenylamino)-6-(N′methoxycarbonyl-hydrazino)-1,3,5-triazin-2-ylsulfanyl]-acetic acid ethyl ester], the half-life was 41 min.
